Test results taken from patent publication US12233114B2, “Method for treating diabetes” (Novo Nordisk A/S, priority 2016, dated 2025).

Experiments:
[1] = tested on: adult human subjects with type 2 diabetes that were at high risk for cardiovascular events; experiment: Cardiovascular outcomes trial (DEVOTE): insulin degludec vs insulin glargine, time to first MACE; assay type: in vivo; settings: for Hazard Ratio (95% CI), time to first MACE: insulin degludec vs insulin glargine
From the text: This trial concerned incidence of cardiovascular events in adult human subjects with type 2 diabetes that were at high risk for cardiovascular events, including such subjects with existing cardiovascular disease. The primary objective of this trial was to confirm the cardiovascular safety of insulin degludec (Tresiba®) compared to that of insulin glargine (Lantus®). The secondary objective was to assess efficacy of insulin degludec on markers of glycaemic control and to assess safety on other parameters in subjects with type 2 diabetes that were at high risk for cardiovascular events.
An 18-month recruitment period was planned. […] Subjects were randomised 1:1 in a double-blinded manner to receive blinded insulin degludec or blinded insulin glargine, each added to standard of care. Subjects continued their current antidiabetic therapy except for the basal insulin component (if any), which was replaced by the investigational product. Treatment with bolus insulin was allowed.
Subjects not currently on insulin were to initiate basal insulin at a dose of 10 units OD given between dinner and bedtime. Subjects receiving basal insulin OD were to transfer unit-to-unit from their previous basal insulin dose. Subjects receiving twice-daily (or more) basal insulin transferred to an OD regimen and the pre-trial total basal insulin dose was reduced by 20-30% in accordance with the label for insulin glargine. For subjects receiving premixed/biphasic insulin OD, the basal component was calculated and transferred unit-to-unit to investigational product OD. The bolus insulin component was calculated and transferred unit-to-unit to bolus insulin and given at the most appropriate meal at the investigator's discretion. For subjects receiving premixed/biphasic insulin twice daily (or more), the total basal component was calculated, reduced by 20-30% and transferred to investigational product OD; the bolus component was to be calculated and transferred to insulin aspart and dosed with the most appropriate meals at the investigator's discretion. Subjects treated with bolus insulin as part of their current insulin regimen could be transferred to insulin aspart unit-to-unit from their previous bolus insulin dose, at the investigator's discretion.
Subjects adjusted their basal insulin dose weekly, aiming for a pre-breakfast (fasting) SMPG value of 71-90 mg/dL (4.0-5.0 mmol/L) by using the algorithm in Table 6. The basal dose was adjusted based on the lowest of three pre-breakfast SMPG values, preferably measured two days prior to dose adjustment and on the day of the dose adjustment. No maximum dose was specified. The investigators were to guide the subjects in adjusting their insulin at clinic visits and phone contacts. Investigators and subjects were recommended to follow the basal insulin titration algorithm. Importantly, however, the decision of adjustment of insulin doses was to be based on all available information, such as symptoms of hypoglycaemia and hyperglycaemia, previous responses to dose adjustments and SMPG values other than those required as per protocol.
Intensification with bolus insulin and other antidiabetic treatments was allowed during the course of the trial. The starting dose of bolus insulin was 4 units per relevant meal. […] Titration of bolus insulin could also be done based on carbohydrate counting. This was to be done at the investigator's discretion.
Subjects received insulin degludec or insulin glargine by subcutaneous administrations once daily in addition to the subject's standard treatment. Basal insulin was injected in the thigh, the upper arm (deltoid area) or the abdominal wall. The formulations were administered in the form of an aqueous solution comprising insulin degludec or insulin glargine, using identical 100 units/mL, 10-mL vials and 1-mL syringes.
The results of this trial may be presented herein as a number or fraction of subjects experiencing an event.

[2] = tested on: human subjects with T2DM inadequately controlled on insulin glargine in combination with metformin; experiment: Example 3: 26-week open-label trial, IDegLira vs IGlar, both in combination with metformin; assay type: in vivo; settings: 26 weeks of treatment
Procedure: A 26-week multinational, multi-centre, open-label, two-arm parallel, randomised, treat-to-target trial in 557 human subjects with T2DM inadequately controlled on insulin glargine (IGlar, Lantus®) at a daily dose between 20-50 units (both inclusive) in combination with metformin was carried out. The primary objective was to confirm the efficacy of IDegLira in controlling glycaemia in human subjects with T2DM on previous treatment with IGlar. The secondary objective was to compare safety of IDegLira to IGlar after 26 weeks of treatment and to confirm superiority of IDegLira versus IGlar after 26 weeks of treatment on one or more of the following: change from baseline in HbA1c, confirmed hypoglycaemia, change from baseline in body weight.
IGlar was given at a start dose equal to the pre-trial daily dose of IGlar (dose-to-dose switch) and was titrated according to a predefined titration algorithm with no maximum dose.
The trial included a screening visit to assess subjects' eligibility and weekly visits/phone contacts during the 26-week treatment period.
Subjects randomised to treatment with IDegLira discontinued the pre-trial IGlar treatment prior to initiating IDegLira treatment with a start dose of 16 dose steps, equivalent to 16 units insulin degludec and 0.6 mg liraglutide. […] Subjects randomised for treatment with IGlar […] on the pre-trial, stable IGlar treatment prior to initiating IGlar treatment with a start dose of IGlar equal to the pretrial daily dose (dose-to-dose switch). No predefined maximum dose was specified for IGlar treatment.
Subjects received IDegLira or IGlar by subcutaneous administration once daily in addition to metformin. […] IGlar was to be injected according to the approved label and using the pre-trial dosing time and injection site throughout the trial.

[3] = tested on: adult human subjects with type 2 diabetes that were at high risk for cardiovascular events; experiment: CV risk score model and subgroup analysis of MACE based on the DEVOTE trial; assay type: in vivo; set-up: key to Estimate (risk of MACE with IDeg compared to IGlar): hazard ratio of MACE, IDeg vs IGlar; settings: for Estimated hazard ratio (HR) for MACE by CV risk score: IDeg/IGlar
From the text: Based on the DEVOTE trial, a cardiovascular (CV) risk score has been developed for individuals with established cardiovascular risk. This risk score was developed using available medical history, baseline information and cardiovascular events occurring during the trial. […] The variables are listed in descending order according to their impact on the overall risk of major adverse cardiovascular events (MACE), here consisting of cardiovascular death, non-fatal myocardial infarction, or non-fatal stroke. The combination of these variables yields an algorithm that can be used to determine the risk of future MACEs and to determine the benefit of being treated with IDeg compared to IGlar.
The CV risk score and estimated MACE hazard ratio for CV risk scores by quartiles based on number of events are presented in FIG. 1. […] This benefit is seen regardless of which of the individual predictors contribute to the high score.
For example, subjects with a BMI ≥30 kg/m^2 and diastolic blood pressure ≥80 mmHg, and subjects with a diastolic blood pressure ≥80 mmHg who were treated with statins would have a benefit with IDeg compared to IGlar in terms of risk of MACE (Table 11).

[4] = tested on: human subjects with type 2 diabetes inadequately controlled with basal insulin and metformin; settings: in vivo
Procedure: (§1) A 26-week randomised, parallel two-arm, double-blind, multi-centre, multinational, treat-to-target trial in 413 human subjects with type 2 diabetes inadequately controlled with basal insulin and metformin with or without SU or glinides was carried out comparing the efficacy and safety of insulin degludec+liraglutide (Xultophy®, IDegLira) once daily with insulin degludec (Tresiba®, IDeg) once daily both added on to metformin. […] The secondary objective was to compare the overall efficacy and safety parameters of IDegLira and IDeg after 26 weeks of treatment. All trial endpoints were collected and assessed throughout the entire duration of the trial.
(§2) Eligible subjects were randomised 1:1 to either once daily IDegLira or once daily IDeg, both in combination with metformin. […] For each subject, the duration of the trial was to be approximately 29 weeks: up to 2 weeks between screening and first treatment, 26 weeks of treatment and at least 1 week of wash-out at the end of the trial.
(§3) The IDegLira dosing unit is defined as a dose step. One (1) IDegLira dose step consists of 1 unit insulin degludec and 0.036 mg liraglutide. Treatment with IDegLira was initiated at 16 dose steps containing 16 units insulin degludec and 0.6 mg liraglutide. Adjustment of the IDegLira dose was performed twice weekly based on the mean of 3 preceding daily fasting SMPG values on 3 consecutive days. Adjustments occurred in 2 dose steps aiming at a fasting glycaemic target of 4.0-5.0 mmol/L (72-90 mg/dL). The maximum allowed dose was 50 dose steps (50 units IDeg/1.8 mg liraglutide). IDeg treatment was initiated with 16 units, and titrated twice weekly to the fasting glycaemic target of 4.0-5.0 mmol/L (72-90 mg/dL) based on the mean fasting SMPG from 3 proceeding measurements as described for IDegLira. The maximum allowed dose was 50 units.
(§4) Subjects received IDegLira or IDeg by subcutaneous administration in addition to metformin. IDegLira or IDeg was injected subcutaneously in the thigh, upper arm (deltoid region) or abdomen once daily preferably at the same time every day. The injection area chosen were to remain unchanged throughout the trial, but rotation within the area was recommended.

[5] = tested on: human subjects with type 2 diabetes inadequately controlled with basal insulin and metformin; experiment: Example 2: 26-week double-blind trial, IDegLira vs IDeg, both added on to metformin; settings: 26 weeks of treatment
Procedure: as §1, §2, §3, §4

## IGlar: Insulin glargine (Lantus®), commercially available basal insulin, active comparator
[1]; all subjects
  n, number of subjects with a first MACE: 356
  proportion of subjects with a first MACE: 9.3%
[1]; subgroup Africa
  n, number of subjects with a first MACE: 18
  proportion of subjects with a first MACE: 14.4%
[1]; subgroup Asia
  n, number of subjects with a first MACE: 31
  proportion of subjects with a first MACE: 9.4%
[1]; subgroup Female
  n, number of subjects with a first MACE: 131
  proportion of subjects with a first MACE: 9.1%
[1]; subgroup Male
  n, number of subjects with a first MACE: 225
  proportion of subjects with a first MACE: 9.5%
[2]
  Mean body weight increase: 1.8 kg
  proportion of subjects experiencing confirmed hypoglycaemic episodes during the trial: 49.1%
  ΔDiastolic blood pressure (change from baseline): −1.4 mmHG
  ΔHeart rate (change from baseline): −0.2 bpm
  ΔSystolic blood pressure (change from baseline): −0.2 mmHG

## N^εB29—(N^α—(HOOC(CH2)14CO)-γ-Glu) desB30 human insulin [IDeg]
[1]; all subjects
  n, number of subjects with a first MACE: 325
  proportion of subjects with a first MACE: 8.5%
[1]; all subjects, MACE = CV death, non-fatal MI, non-fatal stroke, Cox model
  Hazard Ratio (95% CI), time to first MACE: 0.91 (0.78;1.06)
[1]; subgroup Africa
  n, number of subjects with a first MACE: 6
  proportion of subjects with a first MACE: 4.6%
[1]; subgroup Asia
  n, number of subjects with a first MACE: 13
  proportion of subjects with a first MACE: 4.1%
[1]; subgroup Female
  n, number of subjects with a first MACE: 99
  proportion of subjects with a first MACE: 7.0%
[1]; subgroup Male
  n, number of subjects with a first MACE: 226
  proportion of subjects with a first MACE: 9.4%
[1]; subgroup Region: Africa
  Hazard Ratio (95% CI), time to first MACE: 0.30 (0.12; 0.77)
[1]; subgroup Region: Asia
  Hazard Ratio (95% CI), time to first MACE: 0.42 (0.22; 0.81)
[1]; subgroup Sex: Female
  Hazard Ratio (95% CI), time to first MACE: 0.76 (0.59; 0.99)
[1]; subgroup Sex: Male
  Hazard Ratio (95% CI), time to first MACE: 0.99 (0.83; 1.20)
[3]; CV risk score quartile High
  Estimated hazard ratio (HR) for MACE by CV risk score: 1.04
[3]; CV risk score quartile Low
  Estimated hazard ratio (HR) for MACE by CV risk score: 1.02
[3]; CV risk score quartile Moderate
  Estimated hazard ratio (HR) for MACE by CV risk score: 0.89
[3]; CV risk score quartile Very High
  Estimated hazard ratio (HR) for MACE by CV risk score: 0.67
[3]; patients who have a high CV risk score
  hazard ratio IDeg/IGlar, risk of MACE: < 1
[3]; subgroup Age 65-75 years AND systolic blood pressure <140 mmHg
  Estimate (risk of MACE with IDeg compared to IGlar): 0.70
[3]; subgroup Age <65 years AND diastolic blood pressure ≥80 mmHg
  Estimate (risk of MACE with IDeg compared to IGlar): 0.64
[3]; subgroup Age <65 years AND treated with statins
  Estimate (risk of MACE with IDeg compared to IGlar): 0.75
[3]; subgroup BMI ≥30 kg/m^2 AND diastolic blood pressure ≥80 mmHg
  Estimate (risk of MACE with IDeg compared to IGlar): 0.68
[3]; subgroup Diastolic blood pressure <90 mmHg AND HDL ≥1.0 mmol/L
  Estimate (risk of MACE with IDeg compared to IGlar): 0.80
[3]; subgroup Diastolic blood pressure ≥80 mmHg AND treated with statins
  Estimate (risk of MACE with IDeg compared to IGlar): 0.73
[3]; subgroup Diastolic blood pressure ≥80 mmHg AND triglycerides >1.7 mmol/L
  Estimate (risk of MACE with IDeg compared to IGlar): 0.69
[3]; subgroup Established CV risk AND HDL ≥1.0 mmol/L
  Estimate (risk of MACE with IDeg compared to IGlar): 0.78
[3]; subgroup Established CV risk AND diastolic blood pressure ≥80 mmHg
  Estimate (risk of MACE with IDeg compared to IGlar): 0.76
[3]; subgroup Established CV risk AND pulse ≥70 bpm
  Estimate (risk of MACE with IDeg compared to IGlar): 0.80
[3]; subgroup Height <170 cm AND treated with statins
  Estimate (risk of MACE with IDeg compared to IGlar): 0.75
[3]; subgroup Non-White AND diastolic blood pressure <90 mmHg
  Estimate (risk of MACE with IDeg compared to IGlar): 0.64
[3]; subgroup Not Hispanic or Latino AND Non-White
  Estimate (risk of MACE with IDeg compared to IGlar): 0.64
[3]; subgroup Not Hispanic or Latino AND triglycerides >1.7 mmol/L
  Estimate (risk of MACE with IDeg compared to IGlar): 0.79
[3]; subgroup Previous smoker AND age <65 years
  Estimate (risk of MACE with IDeg compared to IGlar): 0.73
[3]; subgroup Previous smoker AND cholesterol ≥3 mmol/L
  Estimate (risk of MACE with IDeg compared to IGlar): 0.79
[3]; subgroup Previous smoker AND diastolic blood pressure ≥80 mmHg
  Estimate (risk of MACE with IDeg compared to IGlar): 0.66
[3]; subgroup Previous smoker AND treated with statins
  Estimate (risk of MACE with IDeg compared to IGlar): 0.79
[3]; subgroup Previous smoker AND triglycerides >1.7 mmol/L
  Estimate (risk of MACE with IDeg compared to IGlar): 0.73
[3]; subgroup Pulse ≥70 bpm AND diastolic blood pressure ≥80 mmHg
  Estimate (risk of MACE with IDeg compared to IGlar): 0.74
[3]; subgroup Pulse ≥70 bpm AND triglycerides >1.7 mmol/L
  Estimate (risk of MACE with IDeg compared to IGlar): 0.76
[3]; subgroup Pulse ≥70 mmHg AND treated with statins
  Estimate (risk of MACE with IDeg compared to IGlar): 0.72
[3]; subgroup Systolic blood pressure <140 mmHg AND HDL ≥1.0 mmol/L
  Estimate (risk of MACE with IDeg compared to IGlar): 0.73
[3]; subgroup Triglycerides >1.7 mmol/L AND HDL ≥1.0 mmol/L
  Estimate (risk of MACE with IDeg compared to IGlar): 0.69
[3]; subgroup Triglycerides >1.7 mmol/L AND treated with statins
  Estimate (risk of MACE with IDeg compared to IGlar): 0.78
[4]
  Adverse event and tolerability profiles: consistent with previous findings
  ΔHeart rate (change from baseline): −0.6 bpm
[5]
  ΔDiastolic blood pressure (change from baseline): −0.7 mmHG
  ΔSystolic blood pressure (change from baseline): −1.7 mmHG
